# Like-named read-outs stand apart in the source and are kept apart here.
# Assay: comparative solubility study, saturated solutions at 25° C., assayed by liquid chromatography
# Format: physicochemical
# Protocol: The media studied are water, ethanol and a water/polyethylene glycol 400 mixture (70/30 v/v).
# The solubility measurements were made at 25° C. after stirring of the saturated solutions for 3 or 5 hours.
# After achieving conditions under which the products solubilized in water are not adsorbed on certain filters, the solutions are filtered and then assayed by liquid chromatography (column μmBondapak C18, eluent acetonitrile/trifluoroacetic acid, detection at 254 nm, flow rate 1 ml/minute).
# [1] = organic solvent or mixture, ethanol, stirring of saturated solution for 3 or 5 hours, read-out: solubility in ethanol
# [2] = water, stirring of saturated solution for 3 or 5 hours, read-out: solubility in water
# [3] = water/peg 400 70/30, organic solvent or mixture, water/polyethylene glycol 400 mixture (70/30 v/v), stirring for 3 or 5 hours, read-out: solubility in water/PEG
solubility [1] [µg/mL],solubility [2] [µg/mL],solubility [3] [µg/mL],SMILES
10300,1.7,30,"COc1cccc(OC)c1-c1cc(C(=O)NC2(C(=O)O)C3CC4CC(C3)CC2C4)nn1-c1cc[n+]([O-])c2cc(Cl)ccc12 (stereo not drawn) [EXAMPLE 2, 2-{[1-(1-oxido-7-chloroquinolin-4-yl)-5-(2,6-dimethoxyphenyl)-pyrazol-3-yl]carbonylamino}adamantane-2-carboxylic acid]"
1300,0.4,< 1,"COc1cccc(OC)c1-c1cc(C(=O)NC2(C(=O)O)C3CC4CC(C3)CC2C4)nn1-c1ccnc2cc(Cl)ccc12 (stereo not drawn) [SR48692, 2-{[1-(7-Chloroquinolin-4-yl)-5-(2,6-dimethoxyphenyl)pyrazol-3-yl]carbonylamino}adamantane-2-carboxylic acid]"

# From patent US5561234A, “1-(7-chloroquinolin-4-yl)pyrazole-3-carboxamide N-oxide derivatives, method of preparing them, and their pharmaceutical compositions” (Sanofi, priority 1994, dated 1996)
